Source: patent publication US5183828A, “Polyhydroxybenzoic acid derivatives” (priority 1990, dated 1993)
Where “and” joins values, the source holds several entries; their conditions need not be identical. Equal values may be shown once. Where a name gives a salt, the structure may show the parent alone.

Assays:
L-1210 Leukemia = assay: activity vs L-1210 leukemia (T/C % survival time), Table 3; type: in vivo, mice; details: >130 significant
Source text: 3,4-Dihydroxybenzamidoxime and 3,4,5-trihydroxybenzamidoxime were subjected to a further series of tests against various transplanted tumors in mice according to the following protocols:
For L-1210 lymphoid leukemia, 20 grams CDF1 or BDF1 mice […] ip with 10^5 leukemia cells. The drug was given one day after tumor inoculation continued for an additional eight days. The mean survival time for the treated animal was compared to that of the control group. In the table, column 1 gives the name of the compound, column 2 the dose levels, and column 3 treated over control percent survival time. (In other words, a figure of 175 indicates a 75% increase in survival time.)

Colon 38 = assay: activity vs colon 38 (T/C % median tumor weight), Table 5; type: in vivo
Description: A compound of this invention was also tested on the solid colon tumor model, colon 38. The tumor was implanted subcutaneously and the drug injected intraperitoneally twice a day on day two (seven hours apart) and twice on day nine. The median tumor weight estimated from tumor diameter is the parameter of tumor inhibition and is measured on day 20. The median tumor weight of treated versus control=T/C percent.

[1] = scavenging of generated tyrosine free radical by pulse radiolysis
Description: Additional free radical scavenging potential of a compound of this invention was measured on a generated tyrosine free radical. There is evidence that a tyrosine free radical is formed as part of the mammalian ribonucleotide reductase enzyme during the conversion of ribonucleotides to deoxyribonucleotides--see L. Akerblom, et al. Proc. Natl. Acad. Sci. USA, 78, 2159-2163 (1981). The method for the generation of the tyrosine free radical and its destruction by a compound of this invention was accomplished by pulse radiolysis experiments at Brunel University, […] England on the Brunel 4 MeV linear accelerator using a 1.5 cm optical cell and a 200 ns pulse delivering a dose of approximately 1 krad as measured by thiocyanate dosimetry. All solutions were purged with nitrogen using a syringe-deaerating technique prior to use. The detailed description of the methodology can be found in R. L. Willson, Chemistry and Industry, 183-193 (1977).
For the generation of the tyrosine radical, sodium azide was utilized as an intermediate between the pulse radiolysis generated free electron and tyrosine. […] See also I. K. Larsen et al., Eur. J. Biochem, 125, 75-81 (1982).

Δ^5-lipoxygenase = target: T1, Δ^5-lipoxygenase (Rattus norvegicus, UniProt P12527); assay: ability to inhibit Δ^5-lipoxygenase; type: biochemical; details: RBL-1 cell supernatant
T1 construct: supernatant fraction of lysed rat basophilic leukemia (RBL-1) cells; endogenous in cells; host or cells: RBL-1 cells, 49,000 g supernatant of homogenate
T1 sequence (P12527 1-673): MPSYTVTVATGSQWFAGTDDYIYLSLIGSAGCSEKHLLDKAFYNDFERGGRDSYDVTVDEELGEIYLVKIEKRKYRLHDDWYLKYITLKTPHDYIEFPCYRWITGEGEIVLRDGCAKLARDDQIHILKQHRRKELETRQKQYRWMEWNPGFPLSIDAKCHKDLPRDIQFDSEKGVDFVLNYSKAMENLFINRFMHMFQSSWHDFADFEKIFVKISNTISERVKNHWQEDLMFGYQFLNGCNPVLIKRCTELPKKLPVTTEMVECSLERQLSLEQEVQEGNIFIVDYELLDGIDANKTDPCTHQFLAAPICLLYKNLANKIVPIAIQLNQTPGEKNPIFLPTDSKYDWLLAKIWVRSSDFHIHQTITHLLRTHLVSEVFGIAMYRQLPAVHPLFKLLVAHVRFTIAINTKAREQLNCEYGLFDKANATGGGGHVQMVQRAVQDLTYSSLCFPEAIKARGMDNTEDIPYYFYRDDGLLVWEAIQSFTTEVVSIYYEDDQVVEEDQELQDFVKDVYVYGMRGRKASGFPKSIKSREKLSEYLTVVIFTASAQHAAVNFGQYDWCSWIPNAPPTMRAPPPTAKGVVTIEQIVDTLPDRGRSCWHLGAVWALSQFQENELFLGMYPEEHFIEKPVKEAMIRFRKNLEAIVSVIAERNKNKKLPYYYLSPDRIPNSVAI
Description: This enzyme is believed to initiate the synthesis of slow reacting substance of […]), an important mediator in the pathogenesis of asthma. Thus, a drug capable of inhibiting this enzyme would also help to prevent asthmatic attacks. In this determination, Δ^5 -lipoxygenase was derived from the supernatant fraction of lysed rat basophilic leukemia (RBL-1) cells. […] The Δ^5 -lipoxygenase was derived from RBL-1 cells which were lysed by homogenization in ice-cold buffer (50 mM Tris-HCl buffer, pH 7.2, containing 1 mM EDTA and 14 uM indomethacin). The homogenate was centrifuged at 4 ° C. at 49,000 g for 20 min and the resulting supernatant fraction was used as the source of Δ^5 -lipoxygenase. The enzyme was assayed at 37° using 6.7 uM (0.39 uCi/ml) [1-14C]arachidonic acid as the substrate in 50 mM Tris-HCl buffer, pH 7.2, containing 1 mM gluthatione, 3 mM CaCl2, 14 uM indomethacin, and 0.25 to 0.50 mM EDTA. […] The effect of compounds on Δ^5 -lipoxygenase activity was determined by preincubating the enzyme for 10 min at 30° in the presence or absence of various concentrations of the drug prior to addition of substrate.

P388 Leukemia = assay: activity vs P388 leukemia (T/C % survival time), Table 6; type: in vivo, mice; details: five treatments, >130 significant
Description: The following protocol was used:
CDF1 mice were injected ip with 10^6 cells The drug was administered in the first day after tumor inoculation and continued daily for five treatments. The mean survival time of the treated group compared to the non-treated control group equals T/C×100=T/C percent.

[2] = system: arachidonic acid induced ear edema; assay: arachidonic acid induced ear edema assay, Table 10; type: in vivo, Mice; details: Experiment 2, 2 mg total dose, topical
Description: The compounds of this invention because of their ability to scavenge free-radicals in vivo are capable of modulating inflammation as set forth in the following protocol: Mice received the test compound topically to each side of the right ear one hr prior to the inflammatory challenge, at which time they were challenged (except for the negative control) with 10 microliter of a 2 mg/20 microliter solution of arachidonic acid applied to each side of the right ear. One hour post-challenge, the animals were sacrificed, the right ears removed, and an 8 mm disc punched from each. These discs were then weighed. The following table gives the results of this experiment.

Structure (SMILES) | t/c % (mean survival time) (L-1210 Leukemia; 25 mg/kg) [%] | t/c % (mean survival time) (L-1210 Leukemia; 50 mg/kg) | t/c % (mean survival time) (L-1210 Leukemia; 100 mg/kg) | t/c % (mean survival time) (L-1210 Leukemia; 200 mg/kg) | t/c % (mean survival time) (L-1210 Leukemia; 300 mg/kg) [%] | T/C % (median tumor weight, day 20) (Colon 38; 800 mg/kg ip, twice on day two and twice on day nine) [%] | activity at lower doses (Colon 38; doses lower than 800 mg/kg) | rate constant (tyrosine free radical scavenging) ([1]; pulse radiolysis) | times faster scavenger of tyrosine free radical than hydroxyurea ([1]; vs hydroxyurea) [times] | inhibition at 1 µM (Δ^5-lipoxygenase; 1 uM) [%] | inhibition at 10 µM (Δ^5-lipoxygenase) [%] | T/C % (mean survival time) (P388 Leukemia; 12.5 mg/kg daily) [%] | T/C % (mean survival time) (P388 Leukemia; 25 mg/kg daily) [%] | T/C % (mean survival time) (P388 Leukemia; 50 mg/kg daily) [%] | T/C % (mean survival time) (P388 Leukemia; 100 mg/kg daily, listed as ethyl gallamidate.HCl, hydrochloride) | T/C % (mean survival time) (P388 Leukemia; 200 mg/kg daily, listed as ethyl gallamidate.HCl, hydrochloride) | T/C % (mean survival time) (P388 Leukemia; 400 mg/kg daily, listed as ethyl gallamidate.HCl, hydrochloride) | Percent Inhibition vs. positive control [2] [%] | Mean Increase in Weight of Inflammed Ear (± S.E.) ([2]; positive control 19.0 ± 0.5, p = .000) [mg]
NC(=NO)c1ccc(O)c(O)c1 [3,4-dihydroxybenzamidoxime.HCl, 3,4-dihydroxybenzamidoximehydrochloride] | 130 | 137% and 117% and 132% and 146% | 128% and 132% and 141% and 133% | 175% and 128% and 155% and 186% | 113 | 87 | ineffective | 4.5×10^8 M^-1 S^-1 | ≥ 100 | 25 | 94 | – | – | – | – | – | – | – | –
CCOC(=N)c1cc(O)c(O)c(O)c1 [ethyl 3,4,5-trihydroxybenzamidate-HCl, Ethyl 3,4,5-trihydroxybenzamidate hydrochloride] | – | – | – | – | – | – | – | – | – | – | 86 | 104 | 112 | 114 | 129% and 128% | 139% and 123% | 149% and 160% | 35 | 12.3 ± 0.4
